Test results as given in PubChem BioAssay (NCI).
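48-hour exposure; five concentrations; linearly interpolated endpoints. At the TGI there is no net growth.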

Assays:
Experiment in all cases: inhibition of tumour cell growth, NCI panel, 48 h
786-0 renal = system: 786-0 renal
A498 renal = system: A498 renal
A549 NSCLC = system: A549 NSCLC
ACHN renal = system: ACHN renal
BT-549 breast = system: BT-549 breast
CAKI-1 renal = system: CAKI-1 renal
CCRF-CEM leukemia = system: CCRF-CEM leukemia
COLO 205 colon = system: COLO 205 colon
DU-145 prostate = system: DU-145 prostate
EKVX NSCLC = system: EKVX NSCLC
HCC-2998 colon = system: HCC-2998 colon
HCT-116 colon = system: HCT-116 colon
HCT-15 colon = system: HCT-15 colon
HL-60(TB) leukemia = system: HL-60(TB) leukemia
HOP-62 NSCLC = system: HOP-62 NSCLC
HOP-92 NSCLC = system: HOP-92 NSCLC
HS 578T breast = system: HS 578T breast
HT29 colon = system: HT29 colon
IGROV1 ovarian = system: IGROV1 ovarian
K-562 leukemia = system: K-562 leukemia
KM12 colon = system: KM12 colon
LOX IMVI melanoma = system: LOX IMVI melanoma
M14 melanoma = system: M14 melanoma
MALME-3M melanoma = system: MALME-3M melanoma
MCF7 breast = system: MCF7 breast
MDA-MB-231 breast = system: MDA-MB-231 breast
MDA-MB-435 = system: MDA-MB-435
MDA-N = system: MDA-N
MOLT-4 leukemia = system: MOLT-4 leukemia
NCI-H226 lung = system: NCI-H226 lung
NCI-H23 lung = system: NCI-H23 lung
NCI-H460 lung = system: NCI-H460 lung
NCI-H522 lung = system: NCI-H522 lung
NCI/ADR-RES ovarian = system: NCI/ADR-RES ovarian
OVCAR-3 ovarian = system: OVCAR-3 ovarian
OVCAR-4 ovarian = system: OVCAR-4 ovarian
OVCAR-5 ovarian = system: OVCAR-5 ovarian
OVCAR-8 ovarian = system: OVCAR-8 ovarian
PC-3 prostate = system: PC-3 prostate
RPMI-8226 leukemia = system: RPMI-8226 leukemia
RXF 393 renal = system: RXF 393 renal
SF-268 CNS = system: SF-268 CNS
SF-295 CNS = system: SF-295 CNS
SF-539 CNS = system: SF-539 CNS
SK-MEL-2 melanoma = system: SK-MEL-2 melanoma
SK-MEL-28 melanoma = system: SK-MEL-28 melanoma
SK-MEL-5 melanoma = system: SK-MEL-5 melanoma
SK-OV-3 ovarian = system: SK-OV-3 ovarian
SN12C renal = system: SN12C renal
SNB-19 CNS = system: SNB-19 CNS
SNB-75 CNS = system: SNB-75 CNS
SR leukemia = system: SR leukemia
SW-620 colon = system: SW-620 colon
T-47D breast = system: T-47D breast
TK-10 renal = system: TK-10 renal
U251 CNS = system: U251 CNS
UACC-257 melanoma = system: UACC-257 melanoma
UACC-62 melanoma = system: UACC-62 melanoma
UO-31 renal = system: UO-31 renal

Structure (SMILES): O=C(N/N=C/c1ccc([N+](=O)[O-])cc1)Nc1ccc(C(=O)O)cc1
- TGI (786-0 renal): > 100 µM
- TGI (A498 renal): 65.1 µM
- TGI (A549 NSCLC): > 100 µM
- TGI (ACHN renal): 99.4 µM
- TGI (BT-549 breast): > 100 µM
- TGI (CAKI-1 renal): > 100 µM
- TGI (CCRF-CEM leukemia): > 100 µM
- TGI (COLO 205 colon): 81 µM
- TGI (DU-145 prostate): > 100 µM
- TGI (EKVX NSCLC): 77 µM
- TGI (HCC-2998 colon): 52.6 µM
- TGI (HCT-116 colon): > 100 µM
- TGI (HCT-15 colon): > 100 µM
- TGI (HL-60(TB) leukemia): > 100 µM
- TGI (HOP-62 NSCLC): 75 µM
- TGI (HOP-92 NSCLC): 92.1 µM
- TGI (HS 578T breast): > 100 µM
- TGI (HT29 colon): > 100 µM
- TGI (IGROV1 ovarian): > 100 µM
- TGI (K-562 leukemia): > 100 µM
- TGI (KM12 colon): > 100 µM
- TGI (LOX IMVI melanoma): > 100 µM
- TGI (M14 melanoma): > 100 µM
- TGI (MALME-3M melanoma): > 100 µM
- TGI (MCF7 breast): > 100 µM
- TGI (MDA-MB-231 breast): > 100 µM
- TGI (MDA-MB-435): > 100 µM
- TGI (MDA-N): > 100 µM
- TGI (MOLT-4 leukemia): > 100 µM
- TGI (NCI-H226 lung): 85.8 µM
- TGI (NCI-H23 lung): > 100 µM
- TGI (NCI-H460 lung): > 100 µM
- TGI (NCI-H522 lung): 58 µM
- TGI (NCI/ADR-RES ovarian): > 100 µM
- TGI (OVCAR-3 ovarian): 26 µM
- TGI (OVCAR-4 ovarian): > 100 µM
- TGI (OVCAR-5 ovarian): > 100 µM
- TGI (OVCAR-8 ovarian): > 100 µM
- TGI (PC-3 prostate): > 100 µM
- TGI (RPMI-8226 leukemia): > 100 µM
- TGI (RXF 393 renal): > 100 µM
- TGI (SF-268 CNS): > 100 µM
- TGI (SF-295 CNS): 63.7 µM
- TGI (SF-539 CNS): > 100 µM
- TGI (SK-MEL-2 melanoma): 83.9 µM
- TGI (SK-MEL-28 melanoma): > 100 µM
- TGI (SK-MEL-5 melanoma): 45.9 µM
- TGI (SK-OV-3 ovarian): 70.8 µM
- TGI (SN12C renal): > 100 µM
- TGI (SNB-19 CNS): > 100 µM
- TGI (SNB-75 CNS): > 100 µM
- TGI (SR leukemia): > 100 µM
- TGI (SW-620 colon): > 100 µM
- TGI (T-47D breast): 49.5 µM
- TGI (TK-10 renal): > 100 µM
- TGI (U251 CNS): > 100 µM
- TGI (UACC-257 melanoma): > 100 µM
- TGI (UACC-62 melanoma): > 100 µM
- TGI (UO-31 renal): > 100 µM

Structure (SMILES): C[N+](C)(C)c1ncnc2c1ncn2C1CC(O)C(CO)O1 (configuration not stated)
- TGI (786-0 renal): > 100 µM
- TGI (A498 renal): > 100 µM
- TGI (A549 NSCLC): > 100 µM
- TGI (ACHN renal): > 100 µM
- TGI (BT-549 breast): > 100 µM
- TGI (CAKI-1 renal): > 100 µM
- TGI (CCRF-CEM leukemia): > 100 µM
- TGI (COLO 205 colon): > 100 µM
- TGI (DU-145 prostate): > 100 µM
- TGI (EKVX NSCLC): > 100 µM
- TGI (HCC-2998 colon): > 100 µM
- TGI (HCT-116 colon): > 100 µM
- TGI (HCT-15 colon): > 100 µM
- TGI (HL-60(TB) leukemia): > 100 µM
- TGI (HOP-62 NSCLC): > 100 µM
- TGI (HOP-92 NSCLC): > 100 µM
- TGI (HS 578T breast): > 100 µM
- TGI (HT29 colon): > 100 µM
- TGI (IGROV1 ovarian): > 100 µM
- TGI (K-562 leukemia): > 100 µM
- TGI (KM12 colon): > 100 µM
- TGI (LOX IMVI melanoma): > 100 µM
- TGI (M14 melanoma): > 100 µM
- TGI (MALME-3M melanoma): > 100 µM
- TGI (MCF7 breast): > 100 µM
- TGI (MDA-MB-231 breast): > 100 µM
- TGI (MDA-MB-435): > 100 µM
- TGI (MDA-N): > 100 µM
- TGI (MOLT-4 leukemia): > 100 µM
- TGI (NCI-H226 lung): > 100 µM
- TGI (NCI-H23 lung): > 100 µM
- TGI (NCI-H460 lung): > 100 µM
- TGI (NCI-H522 lung): > 100 µM
- TGI (NCI/ADR-RES ovarian): > 100 µM
- TGI (OVCAR-3 ovarian): > 100 µM
- TGI (OVCAR-4 ovarian): > 100 µM
- TGI (OVCAR-5 ovarian): > 100 µM
- TGI (OVCAR-8 ovarian): > 100 µM
- TGI (PC-3 prostate): > 100 µM
- TGI (RPMI-8226 leukemia): > 100 µM
- TGI (RXF 393 renal): > 100 µM
- TGI (SF-268 CNS): > 100 µM
- TGI (SF-295 CNS): > 100 µM
- TGI (SF-539 CNS): > 100 µM
- TGI (SK-MEL-2 melanoma): > 100 µM
- TGI (SK-MEL-28 melanoma): > 100 µM
- TGI (SK-MEL-5 melanoma): > 100 µM
- TGI (SK-OV-3 ovarian): > 100 µM
- TGI (SN12C renal): > 100 µM
- TGI (SNB-19 CNS): > 100 µM
- TGI (SNB-75 CNS): > 100 µM
- TGI (SR leukemia): > 100 µM
- TGI (SW-620 colon): > 100 µM
- TGI (T-47D breast): > 100 µM
- TGI (TK-10 renal): > 100 µM
- TGI (U251 CNS): > 100 µM
- TGI (UACC-257 melanoma): > 100 µM
- TGI (UACC-62 melanoma): > 100 µM
- TGI (UO-31 renal): > 100 µM

Structure (SMILES): CC(=O)OCC(=O)O[C@@H]1[C@H]2[C@@H](OC(=O)c3ccccc3)[C@@H](C)C[C@]2(O)[C@H](OC(C)=O)[C@@]2(C)C(OC(C)=O)[C@]1(OC(C)=O)C[C@H]1C(=O)C(C)(C)C[C@@H]12 (some centres not stated)
- TGI (786-0 renal): > 50 µM
- TGI (A498 renal): > 50 µM
- TGI (A549 NSCLC): > 50 µM
- TGI (ACHN renal): > 50 µM
- TGI (BT-549 breast): > 50 µM
- TGI (CAKI-1 renal): > 50 µM
- TGI (CCRF-CEM leukemia): > 50 µM
- TGI (COLO 205 colon): > 50 µM
- TGI (DU-145 prostate): > 50 µM
- TGI (EKVX NSCLC): > 50 µM
- TGI (HCC-2998 colon): > 50 µM
- TGI (HCT-116 colon): > 50 µM
- TGI (HCT-15 colon): > 50 µM
- TGI (HL-60(TB) leukemia): > 50 µM
- TGI (HOP-62 NSCLC): > 50 µM
- TGI (HOP-92 NSCLC): > 50 µM
- TGI (HS 578T breast): > 50 µM
- TGI (HT29 colon): > 50 µM
- TGI (IGROV1 ovarian): > 50 µM
- TGI (K-562 leukemia): > 50 µM
- TGI (KM12 colon): > 50 µM
- TGI (LOX IMVI melanoma): > 50 µM
- TGI (M14 melanoma): > 50 µM
- TGI (MALME-3M melanoma): > 50 µM
- TGI (MCF7 breast): > 50 µM
- TGI (MDA-MB-231 breast): > 50 µM
- TGI (MDA-MB-435): > 50 µM
- TGI (MDA-N): > 50 µM
- TGI (MOLT-4 leukemia): > 50 µM
- TGI (NCI-H226 lung): > 50 µM
- TGI (NCI-H23 lung): > 50 µM
- TGI (NCI-H460 lung): > 50 µM
- TGI (NCI-H522 lung): > 50 µM
- TGI (NCI/ADR-RES ovarian): > 50 µM
- TGI (OVCAR-3 ovarian): > 50 µM
- TGI (OVCAR-4 ovarian): > 50 µM
- TGI (OVCAR-5 ovarian): > 50 µM
- TGI (OVCAR-8 ovarian): > 50 µM
- TGI (PC-3 prostate): > 50 µM
- TGI (RPMI-8226 leukemia): > 50 µM
- TGI (RXF 393 renal): > 50 µM
- TGI (SF-268 CNS): > 50 µM
- TGI (SF-295 CNS): > 50 µM
- TGI (SF-539 CNS): > 50 µM
- TGI (SK-MEL-2 melanoma): > 50 µM
- TGI (SK-MEL-28 melanoma): > 50 µM
- TGI (SK-MEL-5 melanoma): > 50 µM
- TGI (SK-OV-3 ovarian): > 50 µM
- TGI (SN12C renal): > 50 µM
- TGI (SNB-19 CNS): > 50 µM
- TGI (SNB-75 CNS): > 50 µM
- TGI (SR leukemia): > 50 µM
- TGI (SW-620 colon): > 50 µM
- TGI (T-47D breast): > 50 µM
- TGI (TK-10 renal): > 50 µM
- TGI (U251 CNS): > 50 µM
- TGI (UACC-257 melanoma): > 50 µM
- TGI (UACC-62 melanoma): > 50 µM
- TGI (UO-31 renal): > 50 µM
